This note sets out measurements from patent US10793550B2, “4-piperidin-n-(pyrimidin-4-yl)chroman-7-sulfonamide derivatives as sodium channel inhibitors” (GENENTECH, INC., priority 2017, dated 2020).

One data set addresses T1, hNav1.7 (Homo sapiens, UniProt Q15858).
T1 construct: expressed in transfected cells
The experiment in a line: Tritiated compound competitive binding to membranes from cells expressing hNav1.7 and the β1 subunit. The conditions noted are these: competition with 100 pM [3H]compound, 18 h, room temperature; "this model or another representative model of inhibition"; read-out: Nav1.7 inhib. in vitro. The protocol:
Example 5: Tritiated Compound Binding to Membranes Isolated from Cells that Heterologously Express hNav1.7 and the β1 Subunit
Preparation of membranes containing recombinantly expressed sodium channels: Frozen recombinant cell pellets were thawed on ice and diluted to 4 times the cell pellet weight with ice cold 50 mM Tris HCl, pH 7.4 buffer. The cell suspensions were homogenized on ice using a motorized glass dounce homogeniser. Homogenates were further diluted 8.4 times with ice cold 50 mM Tris HCl, pH 7.4 buffer and then centrifuged at 200×g at 4° C. for 15 min. The supernatants were collected and centrifuged at 10000×g at 4° C. for 50 min. The pellets were then re-suspended in 100 mM NaCl, 20 mM Tris HCl, pH 7.4 buffer containing 1% v/v protease inhibitors (Calbiochem) and re-homogenized on ice. The homogenized membranes were then processed through a syringe equipped with a 26 gauge needle. Protein concentrations were determined by Bradford Assay and the membranes were stored at −80° C.
Radioligand Binding Studies:
Saturation experiments. A competitive NaV1.7 inhibitor having a methyl group was tritiated. Three tritiums were incorporated in place of methyl hydrogens to generate [^3H]compound. Binding of this radioligand was performed in 5 mL borosilicate glass test tubes at room temperature. Binding was initiated by adding membranes to increasing concentrations of [^3H]compound in 100 mM NaCl, 20 mM Tris HCl, pH 7.4 buffer containing 0.01% w/v bovine serum albumin (BSA) for 18h. Non-specific binding was determined in the presence of 1 μM unlabeled compound. After 18h, the reactants were filtered through GF/C glass fiber filters presoaked in 0.5% w/v polyethylene imine. Filters were washed with 15 mL ice cold 100 mM NaCl, 20 mM Tris HCl, pH7.4 buffer containing 0.25% BSA to separate bound from free ligand. [^3H]compound bound to filters was quantified by liquid scintillation counting.
Competitive Binding Experiments:
Binding reactions were performed in 96-well polypropylene plates at room temperature for 18h. In 360 μL, membranes were incubated with 100 pM [^3H]compound and increasing concentrations of Test Compound. Non-specific binding was defined in the presence of 1 μM unlabeled compound. Reactions were transferred and filtered through 96-well glass fiber/C filter plates presoaked with 0.5% polyethylene imine. The filtered reactions were washed 5 times with 200 μL ice cold buffer containing 0.25% BSA. Bound radioactivity was determined by liquid scintillation counting.
Data Analysis: For saturation experiments, non-specific binding was subtracted from total binding to provide specific binding and these values were recalculated in terms of pmol ligand bound per mg protein. Saturation curves were constructed and dissociation constants were calculated using the single site ligand binding model: Beq=(Bmax*X)/(X+Kd), where Beq is the amount of ligand bound at equilibrium, Bmax is the maximum receptor density, Kd is the dissociation constant for the ligand, and X is the free ligand concentration. For competition studies percent inhibition was determined and IC50 values were calculated using a 4 parameter logistic model (% inhibition=(A+((B−A)/(1+((x/C)^D)))) using XLfit, where A and B are the maximal and minimum inhibition respectively, C is the IC50 concentration and D is the (Hill) slope.

A short description of data set [1]: In vivo pharmacokinetic experiments (compound clearance in rats). The conditions noted are these: rat; male rats, IV administration, plasma clearance; read-out: PK (CLp, rat). Here is the method: Example 6: In Vivo Pharmacokinetic Experiments (Compound Clearance in Rats)
In vivo clearance (CLp) of certain compounds was measured in order to evaluate whether these compounds were likely to be good candidates for development. Male rats were housed at controlled temperature and humidity in an alternating 12 hr light/dark cycle with access to food and water ad libitum. All in vivo studies were performed in accordance with Institutional Animal Care and Use Committee guidelines and in harmony with the Guide for Laboratory Animal Care and Use. Rats were administered IV administration of compound. Plasma was harvested from blood samples that were collected from each animal at various timepoints following the administration of compound. Plasma concentration of compound was determined by mass spectrometer, and pharmacokinetic analysis was performed using non-compartmental method using Phoenix WinNonlin. Following oral administration, percent bioavailability was determined for each animal by dividing the dose-normalized area under the plasma concentration-time curve from time 0 to the last measured concentration (AUC0-tlast) obtained following each oral dose by the mean dose-normalized AUC0-tlast of the animals dosed by IV injection.
CLp values above about 40 mL/min/kg in Example 6 are considered to be highly cleared from the body after administration of a compound to a subject, meaning that the exposure may be insufficient to be treated for a disease or disorder as provided herein.

T1 sequence (Q15858 whole entry): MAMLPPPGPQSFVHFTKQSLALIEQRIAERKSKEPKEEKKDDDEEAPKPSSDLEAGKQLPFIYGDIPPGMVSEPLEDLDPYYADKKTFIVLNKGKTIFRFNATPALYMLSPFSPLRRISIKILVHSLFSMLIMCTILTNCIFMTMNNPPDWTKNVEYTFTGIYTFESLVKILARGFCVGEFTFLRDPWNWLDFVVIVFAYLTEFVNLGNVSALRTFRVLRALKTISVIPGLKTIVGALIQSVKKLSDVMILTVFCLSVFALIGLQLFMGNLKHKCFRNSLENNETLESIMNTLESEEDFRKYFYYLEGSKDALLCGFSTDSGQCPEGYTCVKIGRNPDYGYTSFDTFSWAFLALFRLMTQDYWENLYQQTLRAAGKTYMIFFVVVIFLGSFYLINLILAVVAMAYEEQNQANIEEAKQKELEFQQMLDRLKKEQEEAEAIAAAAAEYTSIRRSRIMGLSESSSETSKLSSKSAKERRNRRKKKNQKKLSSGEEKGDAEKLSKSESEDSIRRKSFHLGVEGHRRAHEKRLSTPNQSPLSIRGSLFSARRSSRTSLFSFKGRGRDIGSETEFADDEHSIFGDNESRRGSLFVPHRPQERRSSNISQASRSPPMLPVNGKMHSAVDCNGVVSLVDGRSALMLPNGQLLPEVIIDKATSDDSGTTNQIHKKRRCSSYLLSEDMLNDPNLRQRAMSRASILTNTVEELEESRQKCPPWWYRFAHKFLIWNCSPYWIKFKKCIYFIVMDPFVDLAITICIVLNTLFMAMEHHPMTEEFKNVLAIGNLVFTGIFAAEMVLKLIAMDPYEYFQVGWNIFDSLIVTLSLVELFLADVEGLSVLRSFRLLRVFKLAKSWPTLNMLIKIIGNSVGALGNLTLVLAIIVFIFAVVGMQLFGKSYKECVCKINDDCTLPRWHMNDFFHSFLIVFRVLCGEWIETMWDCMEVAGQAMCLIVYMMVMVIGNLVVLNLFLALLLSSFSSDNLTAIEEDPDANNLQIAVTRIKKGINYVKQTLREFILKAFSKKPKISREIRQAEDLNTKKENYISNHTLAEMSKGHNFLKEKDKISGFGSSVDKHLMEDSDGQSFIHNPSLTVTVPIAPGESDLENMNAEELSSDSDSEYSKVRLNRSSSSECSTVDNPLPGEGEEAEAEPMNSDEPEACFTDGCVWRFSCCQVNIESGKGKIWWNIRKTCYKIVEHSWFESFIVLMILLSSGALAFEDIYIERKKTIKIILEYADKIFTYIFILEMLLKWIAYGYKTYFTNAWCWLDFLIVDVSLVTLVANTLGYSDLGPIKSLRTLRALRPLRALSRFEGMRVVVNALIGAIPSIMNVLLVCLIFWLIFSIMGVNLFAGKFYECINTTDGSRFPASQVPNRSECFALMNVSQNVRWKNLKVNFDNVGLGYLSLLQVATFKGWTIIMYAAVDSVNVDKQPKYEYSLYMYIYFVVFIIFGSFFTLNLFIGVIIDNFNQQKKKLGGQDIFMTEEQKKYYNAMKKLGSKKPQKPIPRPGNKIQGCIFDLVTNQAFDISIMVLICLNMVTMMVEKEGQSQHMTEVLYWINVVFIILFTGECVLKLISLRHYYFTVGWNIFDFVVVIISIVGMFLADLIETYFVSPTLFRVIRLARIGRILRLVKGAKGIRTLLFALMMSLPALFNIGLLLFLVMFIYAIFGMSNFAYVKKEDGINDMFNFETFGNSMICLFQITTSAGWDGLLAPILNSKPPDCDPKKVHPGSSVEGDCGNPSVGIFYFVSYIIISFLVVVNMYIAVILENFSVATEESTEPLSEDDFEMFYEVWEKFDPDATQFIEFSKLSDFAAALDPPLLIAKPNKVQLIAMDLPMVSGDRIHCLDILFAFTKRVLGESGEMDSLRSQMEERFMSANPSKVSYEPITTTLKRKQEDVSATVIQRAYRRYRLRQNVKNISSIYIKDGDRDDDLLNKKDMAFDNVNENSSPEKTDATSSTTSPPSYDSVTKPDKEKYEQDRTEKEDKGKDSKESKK
T1 sequence (Q07699 19-218 partner): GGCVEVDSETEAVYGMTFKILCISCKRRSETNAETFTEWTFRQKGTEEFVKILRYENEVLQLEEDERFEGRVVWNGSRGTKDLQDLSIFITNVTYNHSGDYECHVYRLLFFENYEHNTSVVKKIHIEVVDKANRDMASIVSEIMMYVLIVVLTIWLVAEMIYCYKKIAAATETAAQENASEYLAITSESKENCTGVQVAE

Turning to `O=S(=O)(Nc1ncns1)c1ccc2c(c1)OCC[C@@H]2N1CC[C@@](O)(C(F)(F)F)C[C@H]1c1ccc(F)cc1` [A], the IC50 at hNav1.7 came to 1.1 nM. In addition, the clearance in data set [1] is > 60 mL/min/kg. In the same order, the values of `O=S(=O)(Nc1ncns1)c1cc2c(cc1F)[C@@H](N1CC[C@@H](C(F)(F)F)C[C@H]1c1ccccn1)CCO2` [B] are < 0.5 nM and > 60 mL/min/kg. Regarding `O=S(=O)(Nc1ncns1)c1ccc2c(c1)OCC[C@@H]2N1CC[C@@H](C(F)(F)F)C[C@H]1c1ccc(F)cc1` [C], the clearance in data set [1] was > 60 mL/min/kg. The same measure, in the same setting: the figure for `N#C[C@H]1CCN([C@H]2CCOc3cc(S(=O)(=O)Nc4ncns4)ccc32)C(c2ccc(F)cc2)C1` (stereo partly drawn) [D] is > 60 mL/min/kg. For `N#C[C@H]1CCN([C@H]2CCOc3cc(S(=O)(=O)Nc4ncns4)ccc32)[C@@H](c2ccc(F)cc2)C1` [D], the IC50 on hNav1.7 turned out to be 11 nM. For the compound `O=S(=O)(Nc1ncns1)c1ccc2c(c1)OCC[C@@H]2N1CC[C@H](C(F)F)C[C@@H]1c1ccc(F)cc1` [E], the IC50 at hNav1.7 stood at 2.6 nM. Moreover, the clearance in data set [1] was > 60 mL/min/kg. Take `O=S(=O)(Nc1ccncn1)c1cc2c(cc1F)[C@@H](N1CC[C@@H](C(F)(F)F)C[C@H]1c1ccccn1)CCO2` [Example 1, (S)-6-fluoro-4-((2S,4R)-2-(pyridin-2-yl)-4-(trifluoromethyl)piperidin-1-yl)-N-(pyrimidin-4-yl)chroman-7-sulfonamide]: the clearance in data set [1] was < 30 mL/min/kg. On to `O=S(=O)(Nc1ccncn1)c1cc2c(cc1F)[C@@H](N1CC[C@@](O)(C(F)(F)F)C[C@H]1c1ccc(F)cc1)CCO2` [Example 2, (S)-6-fluoro-4-((2S,4S)-2-(4-fluorophenyl)-4-hydroxy-4-(trifluoromethyl)piperidin-1-yl)-N-(pyrimidin-4-yl)chroman-7-sulfonamide], for which the IC50 on hNav1.7 came out at 0.5 nM. Moreover, in data set [1], the clearance is < 30 mL/min/kg.

Take `O=S(=O)(Nc1ccncn1)c1cc2c(cc1F)[C@@H](N1CC[C@@H](OC(F)F)C[C@H]1c1ccc(F)cc1)CCO2` [Example 3, (S)-4-((2S,4R)-4-(difluoromethoxy)-2-(4-fluorophenyl)piperidin-1-yl)-6-fluoro-N-(pyrimidin-4-yl)chroman-7-sulfonamide]: at hNav1.7, the IC50 was 2.2 nM. In data set [1], the clearance was < 30 mL/min/kg. Consider `C[C@@H]1C[C@H](c2cccc(C(F)(F)F)c2)CCN1[C@H]1CCOc2cc(S(=O)(=O)Nc3ccncn3)c(F)cc21` [Example 4, (S)-6-fluoro-4-((2R,4R)-2-methyl-4-(3-(trifluoromethyl)phenyl)piperidin-1-yl)-N-(pyrimidin-4-yl)chroman-7-sulfonamide], for which the IC50 on hNav1.7 worked out at 3.4 nM. The clearance in data set [1] is < 30 mL/min/kg. For the compound `CS(=O)(=O)[C@@H]1CCN([C@H]2CCOc3cc(S(=O)(=O)Nc4ncns4)ccc32)[C@H](c2ccc(F)cc2)C1` [F], the IC50 on hNav1.7 is 8.8 nM. Further, in data set [1], the clearance was > 60 mL/min/kg.
